Source: PMC12775434, “Ultra-large virtual screening unveils potent agonists of the neuromodulatory orphan receptor GPR139” (Nature Communications, 2025)
Where “and” joins values, the source holds several entries; their conditions need not be identical. Equal entries are not always repeated.

Tests used:
Format in all cases: cell-based
[1] = target: T1, GPR139 (Homo sapiens, UniProt Q6DWJ6); assay: Ca2+ mobilization assay, agonist mode, stable GPR139-CHOk1 cell line; conditions: for EC50 / Emax: Supplementary Table 2, mean ± SEM; for EC50: read-out: pEC50 Ca2+ (converted); for Emax: normalized to Lundbeck Cmp 1a, read-out: Emax (%) Ca2+
T1 sequence (Q6DWJ6 1-353): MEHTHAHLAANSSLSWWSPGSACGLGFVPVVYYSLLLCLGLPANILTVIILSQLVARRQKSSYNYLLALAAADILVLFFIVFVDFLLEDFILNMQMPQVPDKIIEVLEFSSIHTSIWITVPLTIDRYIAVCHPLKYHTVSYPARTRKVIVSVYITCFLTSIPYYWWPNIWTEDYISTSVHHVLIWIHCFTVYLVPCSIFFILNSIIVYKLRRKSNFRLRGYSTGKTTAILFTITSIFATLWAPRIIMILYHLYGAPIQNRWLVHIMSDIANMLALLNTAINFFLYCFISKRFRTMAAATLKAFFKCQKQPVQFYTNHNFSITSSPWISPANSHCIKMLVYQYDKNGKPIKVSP
Outline: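 Agonist activity of compounds is assessed in stably transfected CHO-K1 cells using the calcium dye Fluo-4 at 37 °C in HEPES-buffered HBSS (pH 7.4). Efficacy is expressed relative to the reference agonist Lundbeck Cmp 1a, set as 100%.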

[2] = target: T1, GPR139; assay: Ca2+ mobilization assay, antagonist mode (EC80 800 nM Lundbeck Cmp 1a after 20 min preincubation), GPR139-CHOk1; conditions: individual replicates (Supplementary Figure 4)
Outline: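 Fluo-4-loaded GPR139-CHOk1 cells in HEPES-buffered HBSS (pH 7.4, 2.5 mM probenecid) given test compounds at 10 µM, then after 20 min challenged with 800 nM Lundbeck Cmp 1a (EC80). Calcium fluorescence read at 37 °C, 485/525 nm.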

[3] = target: T2, human muscarinic acetylcholine M1 receptor (M1R) (Homo sapiens, UniProt P11229); assay: Ca2+ mobilization counter-screen in M1R-CHOk1 cells; conditions: individual replicates (Supplementary Figure 5)
T2 sequence (P11229 1-460): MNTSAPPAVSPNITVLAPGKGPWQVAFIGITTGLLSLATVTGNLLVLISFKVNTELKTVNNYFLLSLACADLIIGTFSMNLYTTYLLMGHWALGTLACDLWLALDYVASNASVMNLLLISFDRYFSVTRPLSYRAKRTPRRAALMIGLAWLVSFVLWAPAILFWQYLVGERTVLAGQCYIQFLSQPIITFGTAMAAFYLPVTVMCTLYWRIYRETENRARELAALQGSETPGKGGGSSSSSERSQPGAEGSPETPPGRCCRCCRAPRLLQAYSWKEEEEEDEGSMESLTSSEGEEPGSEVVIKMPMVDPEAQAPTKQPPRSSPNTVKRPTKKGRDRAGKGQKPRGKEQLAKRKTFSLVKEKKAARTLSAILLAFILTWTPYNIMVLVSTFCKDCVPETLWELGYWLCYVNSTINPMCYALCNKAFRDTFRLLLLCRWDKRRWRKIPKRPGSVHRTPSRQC
Description: Primary screening and pharmacological characterization of compounds were performed using a CHO-K1 cell line that stably expresses human GPR139 (GPR139-CHOk1). The GPR139-CHOk1 cell line was kindly provided by H. Lundbeck A/S, Denmark[24]. GPR139-CHOk1 cells were grown in Ham’s F-12 Kaighn’s Modification Medium (ThermoFisher #21127030) supplemented with 10% dialyzed fetal bovine serum (US origin, ThermoFisher #26400044), 100 units/mL Penicillin-Streptomycin (ThermoFisher #15140122), and 1 mg/mL Geneticin (ThermoFisher #11811031). […] M1R-CHOk1 cells were purchased from The Missouri S&T cDNA Resource Center (#CEM100TN00). M1R-CHOk1 cells were grown in Ham’s F12 Medium (ThermoFisher #21765029) supplemented with 10% fetal bovine serum (Brazilian origin, ThermoFisher #10270106), 100 units/mL Penicillin-Streptomycin, and 0.25 mg/mL Geneticin. HEK293A cells transiently transfected with GPR139 were used for additional pharmacological assessment of signaling pathways activated by GPR139. HEK239A cells were generously provided by Dr. Asuka Inoue, Tohoku University, Japan. HEK293A cells were grown in Dulbecco’s Modified Eagle Medium (ThermoFisher #31966047) supplemented with 10% dialyzed fetal bovine serum and 100 units/mL Penicillin-Streptomycin. Cell lines were maintained at 37 °C in humidified incubator equilibrated with 5% CO2.
30,000 GPR139- or M1R-CHOk1 cells/well were seeded in black clear bottom tissue culture treated 96-well plates (Greiner #655090) and grown for 20–24 h. Cells were washed with HEPES buffer (Hank’s Balanced Salt Solution (HBBS) supplemented with 20 mM HEPES, 1 mM MgCl2, and 1 mM CaCl2; pH 7.4). Cells were loaded with 50 µL of 2 µM Fluo-4 AM dye (ThermoFisher #F14202) in HEPES buffer supplemented with 2.5 mM probenecid and 0.01% Pluronic F-68 (ThermoFisher #24040032) for 1 h at 37 °C. Cells were washed with HEPES buffer. 50 µL HEPES buffer supplemented with 2.5 mM probenecid was added, and the cells were incubated for 10 min at 37 °C before measurement. 50 µL test compounds diluted in HEPES buffer from DMSO stocks (final DMSO concentration of maximally 0.3%) were added automatically after baseline measurements. The intracellular calcium mobilization was measured on a FlexStation 3 Multimode Microplate Reader (Molecular Devices) at 37 °C with filters for excitation of 485 nm and emission of 525 nm.

[4] = Agonist mode, individual replicates (Supplementary Figure 4)
[5] = log [Compound] M = -4.5, individual replicate columns
[6] = log [Compound] M = -5.0, individual replicate columns
[7] = log [Compound] M = -5.5, individual replicate columns
[8] = log [Compound] M = -6.0, individual replicate columns
[9] = log [Compound] M = -6.5, individual replicate columns
[10] = log [Compound] M = -7.0, individual replicate columns
[11] = log [Compound] M = -7.5, individual replicate columns
[12] = log [Compound] M = -8.0, individual replicate columns
[13] = log [Compound] M = -8.5, individual replicate columns
[14] = log [Compound] M = -9.0, individual replicate columns

Compound	Ca2+ signal (% of Cmp 1a) [1, 4]	EC50 [1] [nM]	Emax [1] [%]	Ca2+ signal (% of Cmp 1a) [1, 5]	Ca2+ signal (% of Cmp 1a) [1, 6]	Ca2+ signal (% of Cmp 1a) [1, 7]	Ca2+ signal (% of Cmp 1a) [1, 8]	Ca2+ signal (% of Cmp 1a) [1, 9]	Ca2+ signal (% of Cmp 1a) [1, 10]	Ca2+ signal (% of Cmp 1a) [1, 11]	Ca2+ signal (% of Cmp 1a) [1, 12]	Ca2+ signal (% of Cmp 1a) [1, 13]	Ca2+ signal (% of Cmp 1a) [1, 14]	Ca2+ signal (% of Cmp 1a) [2]	Ca2+ signal (% of Carbachol) [3]
COc1ccc(-c2nc(CC(=O)NC(C)c3ccccc3)no2)nc1 (stereo not drawn) [Compound 1.35, COC1=CN=C(C2=NC(CC(NC(C3=CC=CC=C3)C)=O)=NO2)C=C1]	54 % of Cmp 1a and 78 % of Cmp 1a and 29 % of Cmp 1a	5010	101 ± 5	94 % of Cmp 1a and 90 % of Cmp 1a and 98 % of Cmp 1a and 75 % of Cmp 1a	78 % of Cmp 1a and 80 % of Cmp 1a (2×) and 38 % of Cmp 1a	47 % of Cmp 1a and 55 % of Cmp 1a and 66 % of Cmp 1a and 27 % of Cmp 1a	20 % of Cmp 1a and 21 % of Cmp 1a and 51 % of Cmp 1a and 17 % of Cmp 1a	-3 % of Cmp 1a and 8 % of Cmp 1a and 26 % of Cmp 1a and 20 % of Cmp 1a	1.67 % of Cmp 1a and -1.67 % of Cmp 1a and 26 % of Cmp 1a and 31 % of Cmp 1a	2.67 % of Cmp 1a and 5.33 % of Cmp 1a and 16 % of Cmp 1a and 34 % of Cmp 1a	-2 % of Cmp 1a and 11 % of Cmp 1a and 29 % of Cmp 1a and 25 % of Cmp 1a	-6 % of Cmp 1a and 3 % of Cmp 1a and 17 % of Cmp 1a and -0.333 % of Cmp 1a	2 % of Cmp 1a and 4.67 % of Cmp 1a and 12 % of Cmp 1a and -2 % of Cmp 1a	28 % of Cmp 1a and 18 % of Cmp 1a and 35 % of Cmp 1a	7 % of Carbachol and 14 % of Carbachol and 10 % of Carbachol
CCn1nc(-c2nc(CC(=O)NC(C)c3ccccc3)no2)cc1C (stereo not drawn) [Compound 1.27, CCN1N=C(C2=NC(CC(NC(C3=CC=CC=C3)C)=O)=NO2)C=C1C]	81 % of Cmp 1a and 93 % of Cmp 1a and 60 % of Cmp 1a	2000	96 ± 6	101 % of Cmp 1a and 107 % of Cmp 1a and 86 % of Cmp 1a	91 % of Cmp 1a and 71 % of Cmp 1a and 89 % of Cmp 1a	56 % of Cmp 1a and 61 % of Cmp 1a and 76 % of Cmp 1a	25 % of Cmp 1a and 33 % of Cmp 1a and 48 % of Cmp 1a	9 % of Cmp 1a and 7 % of Cmp 1a and 10 % of Cmp 1a	4.22 % of Cmp 1a and -3 % of Cmp 1a and 6.42 % of Cmp 1a	8 % of Cmp 1a and 2.12 % of Cmp 1a and -0.804 % of Cmp 1a	0.271 % of Cmp 1a and 9 % of Cmp 1a and -0.437 % of Cmp 1a	-3 % of Cmp 1a and 2.65 % of Cmp 1a and 6.66 % of Cmp 1a	4 % of Cmp 1a and -0.687 % of Cmp 1a and 5 % of Cmp 1a	24 % of Cmp 1a and -1.33 % of Cmp 1a and 22 % of Cmp 1a	-1.81 % of Carbachol and 1.46 % of Carbachol and 5 % of Carbachol
Cc1ccc(-c2nc(CC(=O)NC(C)c3ccccc3)no2)nc1C (stereo not drawn) [Compound 1.31, CC(C1=CC=CC=C1)NC(CC2=NOC(C3=NC(C)=C(C)C=C3)=N2)=O]	66 % of Cmp 1a and 63 % of Cmp 1a and 64 % of Cmp 1a	3160	86 ± 5	86 % of Cmp 1a and 82 % of Cmp 1a and 66 % of Cmp 1a and 84 % of Cmp 1a and 90 % of Cmp 1a	64 % of Cmp 1a and 55 % of Cmp 1a and 44 % of Cmp 1a and 70 % of Cmp 1a and 87 % of Cmp 1a	36 % of Cmp 1a and 30 % of Cmp 1a and 18 % of Cmp 1a and 73 % of Cmp 1a and 76 % of Cmp 1a	7 % of Cmp 1a and 7.42 % of Cmp 1a and 11 % of Cmp 1a and 39 % of Cmp 1a and 38 % of Cmp 1a	11 % of Cmp 1a and -0.0559 % of Cmp 1a and -2.48 % of Cmp 1a and 12 % of Cmp 1a and 13 % of Cmp 1a	-0.363 % of Cmp 1a and -3.44 % of Cmp 1a and 5.45 % of Cmp 1a and 7 % of Cmp 1a and 2.52 % of Cmp 1a	-1.4 % of Cmp 1a and 1.28 % of Cmp 1a and 5 % of Cmp 1a and 4.53 % of Cmp 1a and 3 % of Cmp 1a	2 % of Cmp 1a and 3.59 % of Cmp 1a and 6 % of Cmp 1a and 2.52 % of Cmp 1a and -0.475 % of Cmp 1a	1.45 % of Cmp 1a and 1.69 % of Cmp 1a and 3 % of Cmp 1a and 2.45 % of Cmp 1a and -0.45 % of Cmp 1a	1.77 % of Cmp 1a and -0.256 % of Cmp 1a and 3.41 % of Cmp 1a and 8 % of Cmp 1a and 5 % of Cmp 1a	38 % of Cmp 1a and 34 % of Cmp 1a and 35 % of Cmp 1a	-8 % of Carbachol and 0.74 % of Carbachol and -0.0562 % of Carbachol
Cc1cc(-c2nc(CC(=O)NC(C)c3ccccc3)no2)cs1 (stereo not drawn) [Compound 1.4, CC(C1=CC=CC=C1)NC(CC2=NOC(C3=CSC(C)=C3)=N2)=O]	100 % of Cmp 1a and 61 % of Cmp 1a and 92 % of Cmp 1a	100	114 ± 6	106 % of Cmp 1a and 107 % of Cmp 1a and 115 % of Cmp 1a and 110 % of Cmp 1a	109 % of Cmp 1a and 91 % of Cmp 1a and 131 % of Cmp 1a and 113 % of Cmp 1a	103 % of Cmp 1a and 82 % of Cmp 1a and 119 % of Cmp 1a and 123 % of Cmp 1a	107 % of Cmp 1a and 79 % of Cmp 1a and 97 % of Cmp 1a and 127 % of Cmp 1a	81 % of Cmp 1a and 66 % of Cmp 1a and 80 % of Cmp 1a and 103 % of Cmp 1a	48 % of Cmp 1a and 47 % of Cmp 1a and 54 % of Cmp 1a and 90 % of Cmp 1a	24 % of Cmp 1a and 22 % of Cmp 1a and 35 % of Cmp 1a and 47 % of Cmp 1a	5.33 % of Cmp 1a and 2.67 % of Cmp 1a and 18 % of Cmp 1a and 26 % of Cmp 1a	2.67 % of Cmp 1a (2×) and 7 % of Cmp 1a (2×)	6 % of Cmp 1a and 1.67 % of Cmp 1a and 13 % of Cmp 1a and 4.33 % of Cmp 1a	-0.333 % of Cmp 1a and -4 % of Cmp 1a and -17 % of Cmp 1a	-1 % of Carbachol and 20 % of Carbachol and -5 % of Carbachol
